{"source": "ChEMBL document CHEMBL5149994", "about": "“Anticancer potential of indirubins in medicinal chemistry: Biological activity, structural modification, and structure-activity relationship” (Eur J Med Chem, 2021)", "key": {"[1]": {"tested_on": "HL-60", "assay": "Cytotoxicity against human HL-60 cells assessed as cell growth inhibition", "assay_type": "functional, cell-based"}, "[2]": {"tested_on": "NCI-H157", "assay": "Cytotoxicity against human NCI-H157 cells assessed as cell growth inhibition at 100 uM by calcein-AM staining based flow cytometry analysis relative to control", "assay_type": "functional", "parameters": "scale not given: the % may be the effect or the level left"}, "[3]": {"tested_on": "MCF7", "assay": "Cytotoxicity against human MCF7 cells assessed as cell growth inhibition", "assay_type": "functional, cell-based"}, "[4]": {"tested_on": "SW480", "assay": "Antiproliferative activity against human SW480 cells assessed as cell growth inhibition measured after 72 hrs by MTT assay", "assay_type": "functional, cell-based", "conditions": "SW480, 72 h"}, "[5]": {"assay": "Antiproliferative activity against human Lu1 cells assessed as cell growth inhibition measured after 72 hrs by MTT assay", "assay_type": "functional, cell-based", "conditions": "Lu1, 72 h"}, "[6]": {"tested_on": "HL-60", "assay": "Antiproliferative activity against human HL-60 cells assessed as cell growth inhibition measured after 72 hrs by MTT assay", "assay_type": "functional, cell-based", "conditions": "HL-60, 72 h"}, "[7]": {"tested_on": "HepG2", "assay": "Antiproliferative activity against human HepG2 cells assessed as cell growth inhibition measured after 72 hrs by MTT assay", "assay_type": "functional, cell-based", "conditions": "HepG2, 72 h"}, "[8]": {"assay": "Antiproliferative activity against human Lu1 cells assessed as cell growth inhibition", "assay_type": "functional, cell-based"}, "[9]": {"tested_on": "HepG2", "assay": "Antiproliferative activity against human HepG2 cells assessed as cell growth inhibition", "assay_type": "functional, cell-based"}, "[10]": {"tested_on": "SW480", "assay": "Antiproliferative activity against human SW480 cells assessed as cell growth inhibition", "assay_type": "functional, cell-based"}, "[11]": {"tested_on": "HL-60", "assay": "Antiproliferative activity against human HL-60 cells assessed as cell growth inhibition", "assay_type": "functional, cell-based"}, "[12]": {"target": "CDK2/Cyclin A2 (Homo sapiens, UniProt P24941)", "assay": "Inhibition of CDK2/cyclin A (unknown origin)", "assay_type": "protein-complex assay"}, "[13]": {"tested_on": "A549", "assay": "Antiproliferative activity against human A549 cells assessed as cell growth inhibition measured after 24 hrs by MTT assay", "assay_type": "functional, cell-based", "conditions": "A549, 24 h"}, "[14]": {"tested_on": "SNU-638", "assay": "Antiproliferative activity against human SNU-638 cells assessed as cell growth inhibition measured after 24 hrs by MTT assay", "assay_type": "functional, cell-based", "conditions": "SNU-638, 24 h"}, "[15]": {"tested_on": "HT-1080", "assay": "Antiproliferative activity against human HT-1080 cells assessed as cell growth inhibition measured after 24 hrs by MTT assay", "assay_type": "functional, cell-based", "conditions": "HT-1080, 24 h"}, "[16]": {"assay": "Cytotoxicity against rat RK3E cells harboring RAS assessed as cell growth inhibition measured after 24 hrs by MTT assay", "assay_type": "toxicity, cell-based"}, "[17]": {"tested_on": "LNCaP", "assay": "Cytotoxicity against human LNCaP cells assessed as cell growth inhibition by MTT assay", "assay_type": "functional, cell-based"}, "[18]": {"tested_on": "MCF7", "assay": "Cytotoxicity against human MCF7 cells assessed as cell growth inhibition by MTT assay", "assay_type": "functional, cell-based"}, "[19]": {"tested_on": "LoVo", "assay": "Cytotoxicity against human LoVo cells assessed as cell growth inhibition by MTT assay", "assay_type": "functional, cell-based"}, "[20]": {"tested_on": "DU-145", "assay": "Antiproliferative activity against human DU-145 cells assessed as cell growth inhibition by MTT assay", "assay_type": "functional, cell-based"}, "[21]": {"assay": "Inhibition of GST-tagged recombinant human CDK2/cyclin E expressed in Sf9 cells incubated for 10 mins in presence of [33P]-gamma ATP and ATP by scintillation counter method"}, "[22]": {"tested_on": "MCF7", "assay": "Cytotoxicity against human MCF7 cells assessed as cell growth inhibition measured after 4 days by crystal violet staining based assay", "assay_type": "functional", "conditions": "MCF7, 96 h"}, "[23]": {"assay": "Kinetic solubility of compound in PBS at pH 7.4", "assay_type": "physicochemical", "conditions": "read-out: Kinetic_solubility"}, "[24]": {"tested_on": "MV4-11", "assay": "Cytotoxicity in human MV4-11 cells assessed as cell growth inhibition incubated for 48 hrs by propidium iodide staining based flow cytometry assay", "assay_type": "functional"}, "[25]": {"tested_on": "K562", "assay": "Antiproliferative activity against human K562 cells assessed as cell growth inhibition measured after 48 hrs by CCK-8 assay", "assay_type": "functional, cell-based", "conditions": "K562, 48 h"}, "[26]": {"target": "Indoleamine 2,3-dioxygenase 1 (Homo sapiens, UniProt P14902)", "sequence (P14902 whole entry)": "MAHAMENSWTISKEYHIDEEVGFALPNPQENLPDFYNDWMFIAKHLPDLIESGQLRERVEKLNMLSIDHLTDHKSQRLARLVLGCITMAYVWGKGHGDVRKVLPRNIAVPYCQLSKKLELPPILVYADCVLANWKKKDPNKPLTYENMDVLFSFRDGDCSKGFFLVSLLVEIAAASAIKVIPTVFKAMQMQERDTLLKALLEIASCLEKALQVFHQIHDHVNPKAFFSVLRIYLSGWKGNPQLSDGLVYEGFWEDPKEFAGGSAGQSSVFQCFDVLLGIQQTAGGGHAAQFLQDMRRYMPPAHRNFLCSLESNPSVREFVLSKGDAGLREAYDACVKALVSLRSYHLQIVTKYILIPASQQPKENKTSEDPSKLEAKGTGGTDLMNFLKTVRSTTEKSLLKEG", "assay": "Inhibition of IDO1 in human Hela cells assessed as reduction in N-formylkynurenine formation incubated for 30 mins", "assay_type": "cell-based"}, "[27]": {"tested_on": "CH1", "assay": "Antiproliferative activity against human CH1 cells assessed as cell growth inhibition measured after 96 hrs by MTT assay", "assay_type": "functional, cell-based", "conditions": "CH1, 96 h"}, "[28]": {"tested_on": "SW480", "assay": "Antiproliferative activity against human SW480 cells assessed as cell growth inhibition measured after 96 hrs by MTT assay", "assay_type": "functional, cell-based", "conditions": "SW480, 96 h"}, "[29]": {"tested_on": "A549", "assay": "Antiproliferative activity against human A549 cells assessed as cell growth inhibition measured after 96 hrs by MTT assay", "assay_type": "functional, cell-based", "conditions": "A549, 96 h"}}}
{"smiles": "CN(C)CCN1C(=O)/C(=C2\\Nc3ccccc3C2=O)c2ccccc21", "values": [{"measurement": "IC50", "setting": "[1]", "value": 4.45, "unit": "µM"}]}
{"smiles": "O=C1/C(=C2/C(=O)N(CCN3CCCC3)c3ccccc32)Nc2ccccc21", "values": [{"measurement": "IC50", "setting": "[1]", "value": 3.56, "unit": "µM"}]}
{"smiles": "O=C1/C(=C2/C(=O)N([C@H]3O[C@H](CO)[C@@H](O)[C@H](O)[C@@H]3O)c3ccccc32)[Se]c2ccccc21", "values": [{"measurement": "Activity", "setting": "[2]", "value": 21.5, "unit": "%"}]}
{"smiles": "C[C@@H]1O[C@H](N2C(=O)/C(=C3\\Nc4ccc(Cl)cc4C3=O)c3ccccc32)[C@H](O)[C@H](O)[C@H]1O", "values": [{"measurement": "IC50", "setting": "[3]", "value": 6.96, "unit": "µM"}]}
{"smiles": "CCCOc1ccccc1/C=C/C(=O)c1ccc(OCCn2cc(CN3C(=O)/C(=C4\\Nc5ccccc5\\C4=N/O)c4ccccc43)nn2)cc1O", "values": [{"measurement": "IC50", "setting": "[4]", "value": 3.43, "unit": "µM"}, {"measurement": "IC50", "setting": "[5]", "value": 2.07, "unit": "µM"}, {"measurement": "IC50", "setting": "[6]", "value": 1.28, "unit": "µM"}, {"measurement": "IC50", "setting": "[7]", "value": 2.28, "unit": "µM"}]}
{"smiles": "Cc1ccc(Nc2nnc(SCC(O)CN3C(=O)/C(=C4\\Nc5ccccc5C4=O)c4ccccc43)s2)c(C)c1", "note": "(stereo unspecified)", "values": [{"measurement": "IC50", "setting": "[8]", "value": 4.53, "unit": "µM"}, {"measurement": "IC50", "setting": "[9]", "value": 4.47, "unit": "µM"}, {"measurement": "IC50", "setting": "[10]", "value": 4.19, "unit": "µM"}, {"measurement": "IC50", "setting": "[11]", "value": 4.28, "unit": "µM"}]}
{"smiles": "O=C1Nc2ccc(OC(F)(F)F)cc2/C1=C1/[Se]c2ccccc2C1=O", "values": [{"measurement": "Activity", "setting": "[2]", "value": 17.4, "unit": "%"}]}
{"smiles": "O=C1Nc2ccccc2/C1=C1/Nc2ncccc2C1=O", "values": [{"measurement": "IC50", "setting": "[12]", "value": 8.8, "unit": "µM"}]}
{"smiles": "CCOc1ccccc1/C=C/C(=O)c1ccc(OCCn2cc(CN3C(=O)/C(=C4\\Nc5ccccc5\\C4=N/O)c4ccccc43)nn2)cc1O", "values": [{"measurement": "IC50", "setting": "[4]", "value": 2.54, "unit": "µM"}, {"measurement": "IC50", "setting": "[5]", "value": 1.3, "unit": "µM"}, {"measurement": "IC50", "setting": "[6]", "value": 0.98, "unit": "µM"}, {"measurement": "IC50", "setting": "[7]", "value": 2.01, "unit": "µM"}]}
{"smiles": "CC(C)(C)C(=O)Nc1ccc2c(c1)/C(=C1/Nc3ccccc3/C1=N\\O)C(=O)N2", "values": [{"measurement": "IC50", "setting": "[13]", "value": 6.4, "unit": "µM"}, {"measurement": "IC50", "setting": "[14]", "value": 6.5, "unit": "µM"}, {"measurement": "IC50", "setting": "[15]", "value": 4.2, "unit": "µM"}, {"measurement": "IC50 at 24 h", "setting": "[16]", "value": 6.4, "unit": "µM"}]}
{"smiles": "CCCN1C(=O)/C(=C2\\Nc3ccccc3\\C2=N/O)c2ccccc21", "values": [{"measurement": "IC50", "setting": "[17]", "value": 77.1, "unit": "µM"}, {"measurement": "IC50", "setting": "[18]", "value": 87.6, "unit": "µM"}, {"measurement": "IC50", "setting": "[19]", "value": 67.5, "unit": "µM"}]}
{"smiles": "CCN1C(=O)/C(=C2\\Nc3ccccc3\\C2=N/O)c2cccnc21", "values": [{"measurement": "IC50", "setting": "[20]", "value": 8, "unit": "µM"}]}
{"smiles": "CN1C(=O)/C(=C2\\Nc3ccc(Cl)cc3C2=O)c2cccnc21", "values": [{"measurement": "IC50", "setting": "[20]", "value": 8, "unit": "µM"}]}
{"smiles": "C[C@@H]1O[C@@H](N2C(=O)/C(=C3\\Nc4ccccc4C3=O)c3ccccc32)[C@H](O)[C@H](O)[C@H]1O", "values": [{"measurement": "IC50", "setting": "[3]", "value": 0.76, "unit": "µM"}]}
{"smiles": "CN(C)CCN(C)S(=O)(=O)c1ccc2c(c1)/C(=C1/Nc3ccccc3C1(C)O)C(=O)N2", "note": "(stereo unspecified)", "values": [{"measurement": "IC50", "setting": "[21]", "value": 0.07, "unit": "µM"}, {"measurement": "IC50", "setting": "[22]", "value": "< 0.1", "unit": "µM"}, {"measurement": "solubility kinetic", "setting": "[23]", "value": "> 40", "unit": "µg/mL"}]}
{"smiles": "CC(C)N1C(=O)/C(=C2\\Nc3ccccc3C2=O)c2cccnc21", "values": [{"measurement": "IC50", "setting": "[12]", "value": 9.5, "unit": "µM"}]}
{"smiles": "C[C@@H]1O[C@H](N2C(=O)/C(=C3\\[Se]c4ccccc4C3=O)c3ccccc32)[C@H](O)[C@H](O)[C@H]1O", "values": [{"measurement": "Activity", "setting": "[2]", "value": 16.7, "unit": "%"}]}
{"smiles": "COC(=O)c1ccc2c(c1)/C(=C1/Nc3ccccc3/C1=N\\O)C(=O)N2", "values": [{"measurement": "GI50", "setting": "[24]", "value": 0.0541, "unit": "µM"}]}
{"smiles": "CN(C)S(=O)(=O)c1ccc2c(c1)/C(=C1/Nc3ccccc3C1=O)C(=O)N2", "values": [{"measurement": "IC50", "setting": "[21]", "value": 0.04, "unit": "µM"}, {"measurement": "IC50", "setting": "[22]", "value": "> 10", "unit": "µM"}, {"measurement": "solubility kinetic", "setting": "[23]", "value": "< 1", "unit": "µg/mL"}]}
{"smiles": "O=C1CCC(N2C(=O)c3cccc(-n4cc(COCCOCCOCCN5C(=O)/C(=C6\\Nc7ccccc7C6=O)c6ccccc65)nn4)c3C2=O)C(=O)N1", "note": "(stereo unspecified)", "values": [{"measurement": "IC50", "setting": "[25]", "value": 42.2, "unit": "µM"}, {"measurement": "IC50", "setting": "[26]", "value": 33.9, "unit": "µM"}]}
{"smiles": "NCCO/N=C1/C(=C2/C(=O)Nc3ccccc32)Nc2ccc(O)cc21", "values": [{"measurement": "IC50", "setting": "[27]", "value": 1.3, "unit": "µM"}, {"measurement": "IC50", "setting": "[28]", "value": 2.5, "unit": "µM"}, {"measurement": "IC50", "setting": "[29]", "value": 13, "unit": "µM"}]}
{"smiles": "CCCOc1cccc(/C=C/C(=O)c2ccc(OCCn3cc(CN4C(=O)/C(=C5\\Nc6ccccc6\\C5=N/O)c5ccccc54)nn3)cc2O)c1", "values": [{"measurement": "IC50", "setting": "[4]", "value": 2.91, "unit": "µM"}, {"measurement": "IC50", "setting": "[5]", "value": 2.5, "unit": "µM"}, {"measurement": "IC50", "setting": "[6]", "value": 1.29, "unit": "µM"}, {"measurement": "IC50", "setting": "[7]", "value": 2.95, "unit": "µM"}]}
